The record followed here is patent US20210311020A1, “TREATMENT METHODS AND BIOMARKERS FOR MDM2 INHIBITORS” (ASCENTAGE PHARMA (SUZHOU) CO., LTD., priority 2019, published 2021).

One assay concerns A375 cells (Melanoma). Nature of the assay: In vitro cellular activity in A375. Type of assay: cell-based. The settings on record: Homo sapiens, A-375, P53 WT, ATM WT, ATR WT. The procedure: (§1) Activity of Compound C is tested in various cancer cell lines with indicated TP53, ATM and ATR genetic status. The activity (IC50 in uM) of Compound C in TP53^WT ATM^WT cell lines versus TP53^WTATR^MUT or TP53^WTATM^MUT cell lines was plotted (Figure. 4, MUT indicated mutant; WT indicated Wild-type).

For assay [1], the system named is CO-04-0114 PDX model (Colon cancer). Nature of the assay: Tumor growth inhibition in PDX model CO-04-0114. Format: in vivo, BALB/c nude mice. The following applies: CO-04-0114, Colon cancer, ATM p.H1380Y, ATR wt; 100 mg/kg p.o. QD × 2W; interim. The procedure: (§2) The major endpoint was to see if the tumor growth could be delayed or mice could be cured. Tumor size was measured twice weekly in two dimensions using a caliper, and the volume was expressed in mm^3 using the formula: V=0.5a×b^2 where a and b are the long and short diameters of the tumor, respectively. The tumor size was then used for calculations of both TGI and T/C values. TGI was calculated for each group using the formula: TGI (%)=[1−(Ti−T0)/(Vi−V0)]×100; Ti is the average tumor volume of a treatment group on a given day, T0 is the average tumor volume of the treatment group on the day of treatment start, Vi is the average tumor volume of the vehicle control group on the same day with Ti, and V0 is the average tumor volume of the vehicle group on the day of treatment start. The T/C value (in percent) is an indication of antitumor effectiveness; T and C are the mean volumes of the treated and control groups, respectively, on a given day.
(§3) The objective of this study was to evaluate the in vivo anti-tumor efficacy of Compound C single agent in the 10 TP53 wild-type (wt) and MDM2 normal subcutaneous PDX model in BALB/c nude mice.
(§4) The experimental methods and procedures are similar to those described in Example 1.

A further assay deals with MV-4-11 cells (Leukemia). Nature of the assay: In vitro cellular activity in MV-4-11. Type of assay: cell-based. The settings on record: Homo sapiens, MV4-11, MV-4-11, Leukemia, P53 WT, ATM WT, ATR WT. The procedure:
as §1

In assay [2] the test system is ZR-75-1 cells (Breast cancer). The assay can be described thus: In vitro cellular activity in ZR-75-1. Format: cell-based. The settings on record: Homo sapiens, ZR-75-1, Breast cancer, P53 WT, ATM WT, ATR WT. The procedure:
as §1

Assay [3] has as its system LU-01-0566 PDX model (lung cancer). Nature of the assay: Tumor growth inhibition in PDX model LU-01-0566. The settings on record: LU-01-0566, Lung, MDM2amp/p53wt, ATM Wild-type; 200 mg/kg p.o. Q2D × 3W. Format: in vivo, BALB/c nude mice.
From the text: (§5) The objective of this study was to evaluate the in vivo anti-tumor efficacy of Compound C single agent in the MDM2 amplification (amp) subcutaneous PDX model in BALB/c nude mice.
(§6) The PDX models were originally established from a surgically resected clinical sample, and implanted in nude mice defined as passage 0 (P0). The next passage implanted from P0 tumor was defined as passage1 (P1), and so on during continual implantation in mice. The P3-P7 tumor tissue will be used for the study. A list of 10 PDX models and their corresponding test article is shown in the experimental design table (Table 1 and Table 2). […]
as §2, with “The tumor size was then used for calculations of both TGI and T/C values.” left out, “The T/C value (in percent) is an indication of antitumor effectiveness; T and C are the mean volumes of the treated and control groups, respectively, on a given day.” left out

In assay [4] the test system is LU-01-0439 PDX model (Lung cancer). Nature of the assay: Tumor growth inhibition in PDX model LU-01-0439. The following applies: LU-01-0439, Lung cancer, ATM p.N1650S, ATR wt; 100 mg/kg p.o. QD × 2W; interim. Type of assay: in vivo, BALB/c nude mice. The procedure:
as §2, §3, §4

Another assay deals with metastatic solid tumor. The assay can be described thus: Phase Ib/II dose escalation study with pembrolizumab, tumor response. Type of assay: in vivo, patients. The protocol:
The Ib/II study consists of two parts, a dose escalation study and a Simon two-stage phase II study. In the dose escalation study, Compound C is combined with pembrolizumab of for the treatment of patients with metastatic solid tumor who failed their previous standard treatments. Four dose levels of Compound C are tested: 50, 100, 150, and 200 mg. Compound C is administrated orally every other day (QOD) for consecutive 2 weeks of a 21-day-cycle. Pembrolizumab is administrated at 200 mg IV on day1 of a 21-day-cycle. The primary objectives of the dose escalation study is to determine safety, tolerability, and determination of MTD and RP2D.

The test system of assay [5] is LU-01-0582 PDX model (lung cancer). Nature of the assay: Tumor growth inhibition in PDX model LU-01-0582. The settings on record: LU-01-0582, Lung, MDM2amp/p53wt, ATM Wild-type; 200 mg/kg p.o. Q2D × 3W. Format: in vivo, BALB/c nude mice.
From the text: as §5, §6
as §2, with “The tumor size was then used for calculations of both TGI and T/C values.” left out, “The T/C value (in percent) is an indication of antitumor effectiveness; T and C are the mean volumes of the treated and control groups, respectively, on a given day.” left out

Where [6] appears, read: Test#1, read-out: IC50 (uM) Test#1.
Where [7] appears, read: Test#2, read-out: IC50 (uM) Test#2.

SMILES strings stand for the structures. Like-named read-outs stand apart in the source and are kept apart here.

Turning to `CCN1[C@@H](C(=O)NC23CCC(C(=O)O)(CC2)CC3)[C@H](c2cccc(Cl)c2F)[C@]2(C(=O)Nc3cc(Cl)ccc32)C12CCCCC2` [Compound C], the IC50 with A375 cells (Melanoma) (Avg, read-out: IC50 (uM) Avg) amounted to 0.263 µM; with A375 cells (Melanoma) (setting [6]), 0.401 µM; with A375 cells (Melanoma) (setting [7]), 0.124 µM; with MV-4-11 cells (Leukemia) (Avg (Test#2 NA), read-out: IC50 (uM) Avg), 0.108 µM; in the assay with MV-4-11 cells (Leukemia) (setting [6]) it was 0.108 µM; in assay [2] (Avg, read-out: IC50 (uM) Avg), 0.0232 µM. For the same molecule, the figures for the IC50 in assay [2] (setting [6]) and in assay [2] (setting [7]) were 0.0109 µM and 0.0354 µM, respectively. Moreover, the T/C % in assay [1] came to 51%; in assay [4], 101%. The TGI % in assay [1] is 49%; in assay [4] it was −1%. Moreover, the “Ave TGI %” value in assay [3] stood at 3%; in assay [5], 9%. In addition, the “tumor response, one patient with advanced NSCLC” value in the assay with metastatic solid tumor (100 mg cohort, in combination with pembrolizumab, after failed prior 6 lines therapies including 3 months' nivolumab, still ongoing) is “confirmed partial regression (PR)”. Besides, the “tumor response, one patient with advanced ovarian cancer (ATM germline mutation)” value in the assay with metastatic solid tumor (100 mg cohort, oral QOD 2 weeks of 21-day-cycle, in combination with pembrolizumab 200 mg IV day1, still ongoing) is reported as “confirmed complete regression (CR)”. Besides, in the assay on metastatic solid tumor (in combination with pembrolizumab), the “anti-tumor effects in several tumor types” value is “promising anti-tumor effects”. Besides, in the assay on metastatic solid tumor (of 14 patients, cohorts 50, 100, 150, 200 mg, in combination with pembrolizumab), the “patients who got SD after two cycle treatments” value is listed as 5 patients.

What is called IC50 is the concentration that inhibits the measured activity by half.
